Data from ChEMBL document CHEMBL4392859, “Xylo-C-nucleosides with a pyrrolo[2,1-f][1,2,4]triazin-4-amine heterocyclic base: Synthesis and antiproliferative properties” (Bioorg Med Chem Lett, 2019).

Key:
Format in all cases: functional, cell-based
CAPAN-1 = assay: Antiproliferative activity against human Capan1 cells
[1] = Antiproliferative activity against human HAP1 cells
HCT-116 = assay: Antiproliferative activity against human HCT116 cells
NCI-H460 = assay: Antiproliferative activity against human NCI-H460 cells
[2] = Antiproliferative activity against human DND41 cells
HL-60 = assay: Antiproliferative activity against human HL60 cells
K562 = assay: Antiproliferative activity against human K562 cells
Z-138 = assay: Antiproliferative activity against human Z138 cells
[3] = Homo sapiens, CAPAN-1, read-out: IC50
[4] = Homo sapiens, HAP1, read-out: IC50
[5] = Homo sapiens, HCT-116, read-out: IC50
[6] = Homo sapiens, NCI-H460, read-out: IC50
[7] = Homo sapiens, DND41, read-out: IC50
[8] = Homo sapiens, HL-60, read-out: IC50
[9] = Homo sapiens, K562, read-out: IC50
[10] = Homo sapiens, Z-138, read-out: IC50

Row | IC50 (HCT-116; hct-116) | IC50 (NCI-H460; nci-h460) | IC50 (HL-60; hl-60) | IC50 (K562; k562) | IC50 (HCT-116; [5]) [nM] | IC50 (NCI-H460; [6]) [nM] | IC50 (HL-60; [8]) [nM] | IC50 (K562; [9]) [nM] | Compound | IC50 (CAPAN-1; capan-1) | IC50 [1] | IC50 [2] | IC50 (Z-138; z-138) | IC50 (CAPAN-1; [3]) [nM] | IC50 [1, 4] [nM] | IC50 [2, 7] [nM] | IC50 (Z-138; [10]) [nM]
1 | Not Active | Not Active | Not Active | Not Active |  |  |  |  | N#C[C@@]1(c2ccc3c(N)ncnn23)O[C@H](CO)[C@H](O)[C@H]1O | Not Active | Not Active | Not Active | Not Active |  |  |  | 
2 |  |  |  |  | 8400 | 2000 | 1900 | 4300 | Nc1ncnn2c([C@@H]3O[C@H](CO)[C@H](O)[C@H]3O)ccc12 |  |  |  |  | 2700 | 9300 | 2800 | 4000
3 |  |  |  |  | 4 | 7 | 47 | 16 | CC(=O)O[C@@]12CO[C@@H]1C[C@H](O)[C@@]1(C)C(=O)[C@H](O)C3=C(C)[C@@H](OC(=O)[C@H](O)[C@@H](NC(=O)OC(C)(C)C)c4ccccc4)C[C@@](O)([C@@H](OC(=O)c4ccccc4)[C@H]21)C3(C)C [DOCETAXEL ANHYDROUS] |  |  |  |  | 19 | 18 | 14 | 9

Row | Compound | IC50 (HCT-116; hct-116) | IC50 (NCI-H460; nci-h460) | IC50 (HL-60; hl-60) | IC50 (K562; k562) | IC50 (HCT-116; [5]) [nM] | IC50 (NCI-H460; [6]) [nM] | IC50 (HL-60; [8]) [nM] | IC50 (K562; [9]) [nM] | IC50 (CAPAN-1; capan-1) | IC50 [1] | IC50 [2] | IC50 (Z-138; z-138) | IC50 (CAPAN-1; [3]) [nM] | IC50 [1, 4] [nM] | IC50 [2, 7] [nM] | IC50 (Z-138; [10]) [nM]
4 | CN[C@@H]1C[C@H]2O[C@@](C)([C@@H]1OC)n1c3ccccc3c3c4c(c5c6ccccc6n2c5c31)C(=O)NC4 [STAUROSPORINE] |  |  |  |  | 37 |  | 19 | 83 |  |  |  |  | 48 |  | 23 | 18
